Source: PMC4865847, “Putative histidine kinase inhibitors with antibacterial effect against multi-drug resistant clinical isolates identified by in vitro and in silico screens” (Scientific Reports, 2016)
In brackets after ≈: the same amount, converted by molar mass. Several values for one entry are separate records, joined by “and”; a condition that tells them apart may be missing. Equal entries are not always repeated. Where two headings read alike, the source gives them in different places. Marks after values point to notes of the source that are not given here.

What was measured:
[1] = molecular target: S. aureus PhoR (PhoR^S) (Staphylococcus aureus, UniProt Q2FXN7); test: Aggregation analysis by native-PAGE, PhoR^S; settings: 2 mM (S5 and S6 5 mM), 10% DMSO
Procedure: E. coli PhoR and EnvZ, and S. aureus PhoR ([…], final concentration) were prepared in kinase buffer. […] DMSO in the assays was maintained to a final concentration 10% (v/v). After 30 min of incubation at room temperature Native polyacrylamide gel electrophoresis (Native-PAGE) loading buffer was added and samples loaded. Coomassie blue staining was used for protein visualization.

[2] = tested on: Staphylococcus aureus; test: Antibacterial susceptibility testing (MIC/MBC), S. aureus; format: cell-based; settings: for MIC S. aureus DSM 20231 / bacteriostatic or bactericidal for S. aureus DSM 20231: strain DSM 20231
Procedure: (§1) Minimal inhibitory concentrations (MICs) were determined following a standard double-dilution method. […] For S. pneumoniae MICs were determined by adapting the standard double-dilution method to anaerobic conditions and of this microorganism (use of Todd Hewitt Yeast extract with 200 U/mL of catalase and continuous monitoring of growth).

[3] = molecular target: T1, E. coli PhoR (PhoR^E) (Escherichia coli, UniProt P08400); test: In vitro autophosphorylation kinase assay with γ-32P-ATP, PhoR^E; format: biochemical; settings: for inhibition at 2000 µM: 2 mM, 30 sec, compared to negative control; for IC50: autophosphorylation, one time point (30 sec), 10% DMSO
T1 construct: The catalytic portion (DHp and CA domain) of E. coli PhoR (PhoR^E); made in house; host or cells: E. coli RIL
Summary of the method: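 Autophosphorylation, initiated with γ-32P-ATP (0.1 μCi/μl; 0.03–0.06 μM ATP final), quenched with SDS/EDTA sample buffer, resolved by SDS-PAGE and quantified by phosphor-imaging. ≈4 μM kinase, fragments up to 20 mM, pH 8.5 Tris buffer with Mg2+; DMSO-matched ligand-free controls.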

[4] = tested on: Staphylococcus epidermidis; test: Antibacterial susceptibility testing (MIC/MBC), S. epidermidis; format: cell-based
Procedure: as §1

[5] = tested on: Escherichia coli; test: Antibacterial susceptibility testing (MIC/MBC), E. coli; format: cell-based; settings: Escherichia coli
Procedure: as §1

[6] = tested on: Klebsiella pneumoniae; test: Antibacterial susceptibility testing (MIC), K. pneumoniae; format: cell-based; settings: for MIC: Klebsiella pneumoniae, ATCC700603, strain ATCC 700603; for MIC K. pneumoniae ATCC700603: strain ATCC 700603
Summary of the method: (§2)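 MICs were determined by standard double (two-fold) dilution and read as the lowest compound concentration with no visible growth. MBC was the lowest concentration giving no colonies on plating, or no growth on regrowth in fresh MH medium. For S. pneumoniae the method was adapted to anaerobic conditions in Todd Hewitt yeast extract with 200 U/mL catalase, with growth monitored continuously.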

[7] = tested on: Streptococcus pneumoniae; test: Antibacterial susceptibility testing (MIC), S. pneumoniae; format: cell-based; settings: strain 49619
Procedure: Bacterial strains used in this study for antibacterial susceptibility testing (Table S5) were propagated using standard microbiological procedures. Minimal inhibitory concentrations (MICs) were determined following a standard double-dilution method. MICs were recorded as the lowest concentration of the compound where no visible growth was observed. After plating the dilutions around the MIC or growing them in fresh MH media, minimal bactericidal concentration (MBC) was recorded as the lowest concentration of the compound at which no colonies were formed or no growth was observed, respectively. For S. pneumoniae MICs were determined by adapting the standard double-dilution method to anaerobic conditions and of this microorganism (use of Todd Hewitt Yeast extract with 200 U/mL of catalase and continuous monitoring of growth).

[8] = tested on: Stenotrophomonas maltophilia; test: Antibacterial susceptibility testing (MIC), S. maltophilia; format: cell-based
Summary of the method: as §2

[9] = tested on: Pseudomonas aeruginosa; test: Antibacterial susceptibility testing (MIC), P. aeruginosa; format: cell-based; settings: strain ATCC 27853; for MIC: Pseudomonas aeruginosa, ATCC27853
Summary of the method: as §2

[10] = tested on: Streptococcus suis; test: Antibacterial susceptibility testing (MIC), S. suis; format: cell-based; settings: Streptococcus suis, read-out: MIC Streptococcus suis 3881/S10, strain 3881/S10
Summary of the method: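 Susceptibility is given as MIC by the standard double-dilution method, defined as no visible growth. For S. pneumoniae, conditions were anaerobic with Todd Hewitt yeast extract plus 200 U/mL catalase.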

[11] = Hemolysis assay; format: cell-based; settings: human
Procedure: Hemolytic activity against human erythrocytes taken from a healthy donor was measured as previously described. The hemolysis experiments were carried out in accordance with the guidelines of the United Arab Emirates University (UAEU) Research Ethics Review Board. All experimental protocols were approved by the Research Ethics Review Board of UAEU and informed consent was obtained from all donors.

[12] = Solubility in kinase buffer; format: physicochemical; settings: kinase buffer with 10% DMSO, pH 8.5, aqueous with cosolvent or surfactant or cyclodextrin, kinetic from dmso stock; kinase buffer in the presence of 10% DMSO; read-out: concentration above which not soluble / reduced solubility in kinase buffer
[13] = Staphylococcus aureus, ATCC reference strain 25293, read-out: MIC S. aureus 25293
[14] = Staphylococcus aureus, DSM20231, strain DSM 20231, read-out: MIC S. aureus DSM 20231
[15] = Staphylococcus aureus, MRSA clinical isolate 127/08, read-out: MIC S. aureus 127/08
[16] = Staphylococcus aureus, MRSA clinical isolate 145/08, read-out: MIC S. aureus 145/08
[17] = Staphylococcus aureus, MRSA clinical isolate 274/08, read-out: MIC S. aureus 274/08
[18] = Staphylococcus aureus, MRSA, MRSA clinical isolate S908, read-out: MIC S. aureus S908
[19] = Staphylococcus aureus, MRSA, MRSA clinical isolate T4/6, read-out: MIC S. aureus T4/6
[20] = Staphylococcus aureus, MRSA, MRSA clinical isolate V4180, read-out: MIC S. aureus V4180
[21] = Staphylococcus aureus, MRSA, summary over susceptible MRSA clinical isolates, read-out: MICs for MRSA strains
[22] = Staphylococcus epidermidis, DSM20044, strain DSM 20044, read-out: MIC S. epidermidis DSM 20044
[23] = Staphylococcus epidermidis, clinical isolate T7/3, read-out: MIC S. epidermidis T7/3
[24] = Staphylococcus epidermidis, clinical isolate T37/8, read-out: MIC S. epidermidis T37/8
[25] = Staphylococcus epidermidis, clinical isolate T6119, read-out: MIC S. epidermidis T6119
[26] = Staphylococcus epidermidis, strain RP62A (biofilm producer), read-out: MIC S. epidermidis RP62A
[27] = Staphylococcus epidermidis, strain RP62A/1 (non-biofilm producer), read-out: MIC S. epidermidis RP62A/1
[28] = ATCC25276, strain ATCC 25276, read-out: MIC E. coli ATCC 25276
[29] = strain CFT 073, read-out: MIC E. coli CFT 073
[30] = clinical isolate B5/5, read-out: MIC S. maltophilia B5/5
[31] = clinical isolate B6/2, read-out: MIC S. maltophilia B6/2
[32] = clinical isolate B32/1, read-out: MIC S. maltophilia B32/1

T1 sequence (P08400 210-425): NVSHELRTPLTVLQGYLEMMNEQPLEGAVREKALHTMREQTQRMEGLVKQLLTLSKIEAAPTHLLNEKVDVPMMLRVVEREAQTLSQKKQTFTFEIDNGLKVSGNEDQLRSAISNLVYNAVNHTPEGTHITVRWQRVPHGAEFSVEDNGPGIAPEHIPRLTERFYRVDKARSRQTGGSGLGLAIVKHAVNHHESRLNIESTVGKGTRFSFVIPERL
Chain of S. aureus PhoR (PhoR^S) (Q2FXN7 entry or part of it): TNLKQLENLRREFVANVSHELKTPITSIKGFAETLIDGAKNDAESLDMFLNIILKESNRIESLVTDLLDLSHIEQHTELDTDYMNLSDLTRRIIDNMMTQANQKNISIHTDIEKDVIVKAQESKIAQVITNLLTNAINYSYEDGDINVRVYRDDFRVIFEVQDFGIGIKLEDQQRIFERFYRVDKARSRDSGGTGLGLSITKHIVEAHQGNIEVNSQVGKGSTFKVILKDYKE

Compound	HK aggregation, PhoR^S [1]	MIC [2, 13]	MIC [2, 14]	MIC [2, 15]	MIC [2, 16]	MIC [2, 17]	MIC [2, 18]	MIC [2, 19]	MIC [2, 20]	MIC [2, 21]	MIC S. aureus DSM 20231 [2]	bacteriostatic or bactericidal for S. aureus DSM 20231 [2]	inhibition at 2000 µM [3]	MIC [4, 22]	MIC [4, 23]	MIC [4, 24]	MIC [4, 25]	MIC [4, 26]	MIC [4, 27]	MIC [5, 28]	also measured
CC(C)(C)c1ccc(O)c(CNc2ccccc2)c1 [S1.14, 4-tert-butyl-2-[(phenylamino)methyl]phenol]	do not cause HK aggregation	125 µg/mL (≈ 490 µM)	500 µg/mL (≈ 1960 µM)	250 µg/mL (≈ 979 µM)	250 µg/mL (≈ 979 µM)	250 µg/mL (≈ 979 µM)	250 µg/mL (≈ 979 µM)	250 µg/mL (≈ 979 µM)	250 µg/mL (≈ 979 µM)	250 µg/mL (≈ 979 µM)	500^¶ μg/ml	bactericidal	> 40%	500 µg/mL (≈ 1960 µM)	250 µg/mL (≈ 979 µM)	500 µg/mL (≈ 1960 µM)	500 µg/mL (≈ 1960 µM)	> 500 µg/mL	500 µg/mL (≈ 1960 µM)	> 500 µg/mL	MBC ([2]; Staphylococcus aureus, DSM20231, strain DSM 20231, read-out: MBC S. aureus DSM 20231): 500 µg/mL (≈ 1960 µM); IC50 ([3]; read-out: IC50 PhoR^E): > 2000 µM; MBC ([4]; Staphylococcus epidermidis, DSM20044, strain DSM 20044): 500 µg/mL (≈ 1960 µM); MIC ([4]; Staphylococcus epidermidis, summary over strains, read-out: MICs for the S. epidermidis strains): 250 to 500 µg/mL (≈ 979 to 1960 µM); MIC S. epidermidis DSM 20044 ([4]; strain DSM 20044): 500^¶ μg/ml; bacteriostatic or bactericidal for S. epidermidis DSM 20044 ([4]; strain DSM 20044): bactericidal; MIC [5, 29]: > 500 µg/mL; MIC [6]: > 500 µg/mL; MIC K. pneumoniae ATCC700603 [6]: >500 µg/mL; MIC [7]: > 500 µg/mL; MIC [8, 30]: 500 µg/mL (≈ 1960 µM); MIC [8, 31]: 500 µg/mL (≈ 1960 µM); MIC [8, 32]: 500 µg/mL (≈ 1960 µM); MIC ([8]; summary over strains, read-out: MICs for S. maltophilia strains): 250 to 500 µg/mL (≈ 979 to 1960 µM); MIC [9]: > 500 µg/mL; MIC P. aeruginosa ATCC 27853 [9]: >500 µg/mL; MIC [10]: 125 µg/mL (≈ 490 µM); HC50 [11]: > 500 µg/mL
CC(=O)Nc1cccc(-c2ccccc2Cl)c1 [S1.7, N-[3-(2-chlorophenyl)phenyl]acetamide]	do not cause HK aggregation	125 µg/mL (≈ 509 µM)	250 µg/mL (≈ 1020 µM)	> 500 µg/mL	> 500 µg/mL	250 µg/mL (≈ 1020 µM)	> 500 µg/mL	250 µg/mL (≈ 1020 µM)	> 500 µg/mL	≥ 250 µg/mL	250^# μg/ml	bacteriostatic	> 40%	> 500 µg/mL	> 500 µg/mL	> 500 µg/mL	> 500 µg/mL	> 500 µg/mL	> 500 µg/mL	> 500 µg/mL	IC50 ([3]; IC50 PhoR^E): 100 µM and ~100 µM; MIC [5, 29]: > 500 µg/mL; MIC [6]: > 500 µg/mL; MIC K. pneumoniae ATCC700603 [6]: >500 µg/mL; MIC [7]: 128 µg/mL (≈ 521 µM); MIC [8, 30]: > 500 µg/mL; MIC [8, 31]: > 500 µg/mL; MIC [8, 32]: > 500 µg/mL; MIC [9]: > 500 µg/mL; MIC P. aeruginosa ATCC 27853 [9]: >500 µg/mL; MIC [10]: > 500 µg/mL; solubility [12]: ≤ 1000 µM; HC50 [11]: > 500 µg/mL
